Molecules are shown by their SMILES. Inconclusive results are not listed.

The assay concerns Lewis lung carcinoma i.m., BDF1 mice, T/C %. Description: NCI In Vivo Anticancer Drug Screen. Data for tumor model Lewis Lung Carcinoma (intramuscular) in B6D2F1 (BDF1) mice. On the procedure: The antitumor activity of compounds was measured in mice bearing transplantable tumors. Survival or tumor size were measured and the results are expressed as the measurement made in the treated group (T) divided by the measurement made in the vehicle treated control group (C). The tumor model used in this assay is Lewis Lung Carcinoma (intramuscular) in B6D2F1 (BDF1) mice

On to `CN(Cc1ccccc1)/N=N/c1nc[nH]c1C(N)=O`, for which the T/C (endpoint: mean tumor weight, dose: 50.0 mg/kg/injection, schedule: Q01DX011 (ip), vehicle: saline, higher = larger tumour) was 64 % of control and the T/C (endpoint: median survival time, dose: 50.0 mg/kg/injection, schedule: Q01DX011 (ip), vehicle: saline, higher = longer survival) is 91 % of control.

Turning to `CCCCC(CCC)(CCN)CCCC`, the T/C is, setting by setting: (endpoint: mean tumor weight (est.), dose: 1.0 mg/kg/injection, schedule: Q01DX011 (ip), vehicle: saline with Tween-80, higher = larger tumour) 90 % of control; (endpoint: mean tumor weight (est.), dose: 2.0 mg/kg/injection, schedule: Q01DX011 (ip), vehicle: saline with Tween-80, higher = larger tumour) 97 % of control; (endpoint: mean tumor weight (est.), dose: 4.0 mg/kg/injection, schedule: Q01DX011 (ip), vehicle: saline with Tween-80, higher = larger tumour) 102 % of control; (endpoint: mean tumor weight (est.), dose: 8.0 mg/kg/injection, schedule: Q01DX011 (ip), vehicle: saline with Tween-80, higher = larger tumour) 69 % of control; (endpoint: median survival time, dose: 1.0 mg/kg/injection, schedule: Q01DX011 (ip), vehicle: saline with Tween-80, higher = longer survival) 103 % of control; (endpoint: median survival time, dose: 2.0 mg/kg/injection, schedule: Q01DX011 (ip), vehicle: saline with Tween-80, higher = longer survival) 92 % of control. Besides, the T/C was 94 % of control (endpoint: median survival time, dose: 4.0 mg/kg/injection, schedule: Q01DX011 (ip), vehicle: saline with Tween-80, higher = longer survival) and 92 % of control (endpoint: median survival time, dose: 8.0 mg/kg/injection, schedule: Q01DX011 (ip), vehicle: saline with Tween-80, higher = longer survival).

For `FC(F)(F)c1ccc(-c2ccc(OCCN3CCCC3)cc2)cc1`, the T/C was 57 % of control (endpoint: mean tumor weight, dose: 3.13 mg/kg/injection, schedule: Q01DX011 (ip), vehicle: saline, higher = larger tumour); 62 % of control (endpoint: mean tumor weight, dose: 6.25 mg/kg/injection, schedule: Q01DX011 (ip), vehicle: saline, higher = larger tumour); 104 % of control (endpoint: median survival time, dose: 3.13 mg/kg/injection, schedule: Q01DX011 (ip), vehicle: saline, higher = longer survival); 100 % of control (endpoint: median survival time, dose: 6.25 mg/kg/injection, schedule: Q01DX011 (ip), vehicle: saline, higher = longer survival).

Consider `COc1ccc([I+]c2ccc(OC)cc2)cc1`, for which the T/C is 110 % of control (endpoint: median survival time, dose: 0.78 mg/kg/injection, schedule: Q01DX011 (ip), vehicle: saline, higher = longer survival); 106 % of control (endpoint: median survival time, dose: 1.56 mg/kg/injection, schedule: Q01DX011 (ip), vehicle: saline, higher = longer survival); 98 % of control (endpoint: median survival time, dose: 3.12 mg/kg/injection, schedule: Q01DX011 (ip), vehicle: saline, higher = longer survival).

As for `COC(=O)C1Cc2cncn2C(=O)N1` (stereo not given), the T/C by setting is: (endpoint: median survival time, dose: 4.0 mg/kg/injection, schedule: Q01DX009 (ip), vehicle: water, higher = longer survival) 113 % of control; (endpoint: median survival time, dose: 8.0 mg/kg/injection, schedule: Q01DX009 (ip), vehicle: water, higher = longer survival) 108 % of control; (endpoint: median survival time, dose: 16.0 mg/kg/injection, schedule: Q01DX009 (ip), vehicle: water, higher = longer survival) 104 % of control; (endpoint: median survival time, dose: 32.0 mg/kg/injection, schedule: Q01DX009 (ip), vehicle: water, higher = longer survival) 103 % of control; (endpoint: median survival time, dose: 64.0 mg/kg/injection, schedule: Q01DX009 (ip), vehicle: water, higher = longer survival) 98 % of control.

For `CN1C=c2c3c(ccc2=C2C=CC4C=C5OCOC5=CC4=C21)OCO3` (stereo not given), the T/C is, setting by setting: (endpoint: mean tumor weight (est.), dose: 7.5 mg/kg/injection, schedule: Q01DX011 (ip), vehicle: saline with Tween-80, higher = larger tumour) 78 % of control; (endpoint: mean tumor weight (est.), dose: 15.0 mg/kg/injection, schedule: Q01DX011 (ip), vehicle: saline with Tween-80, higher = larger tumour) 51 % of control; (endpoint: median survival time, dose: 7.5 mg/kg/injection, schedule: Q01DX011 (ip), vehicle: saline with Tween-80, higher = longer survival) 122 % of control; (endpoint: median survival time, dose: 15.0 mg/kg/injection, schedule: Q01DX011 (ip), vehicle: saline with Tween-80, higher = longer survival) 100 % of control.

Take `COc1cc([C@@H]2c3cc4c(cc3[C@H](O)[C@H]3COC(=O)[C@H]23)OCO4)cc(OC)c1OC`: the T/C is 100 % of control (endpoint: mean tumor weight, dose: 0.25 mg/kg/injection, schedule: Q01DX011 (ip), vehicle: Klucel (hydroxypropylcellulose) (HPC), higher = larger tumour); 77 % of control (endpoint: mean tumor weight, dose: 0.5 mg/kg/injection, schedule: Q01DX011 (ip), vehicle: Klucel (hydroxypropylcellulose) (HPC), higher = larger tumour); 105 % of control (endpoint: mean tumor weight, dose: 1.0 mg/kg/injection, schedule: Q01DX011 (ip), vehicle: Klucel (hydroxypropylcellulose) (HPC), higher = larger tumour); 87 % of control (endpoint: median survival time, dose: 0.13 mg/kg/injection, schedule: Q01DX011 (ip), vehicle: Klucel (hydroxypropylcellulose) (HPC), higher = longer survival); 107 % of control (endpoint: median survival time, dose: 0.25 mg/kg/injection, schedule: Q01DX011 (ip), vehicle: Klucel (hydroxypropylcellulose) (HPC), higher = longer survival); 114 % of control (endpoint: median survival time, dose: 0.5 mg/kg/injection, schedule: Q01DX011 (ip), vehicle: Klucel (hydroxypropylcellulose) (HPC), higher = longer survival).

For the compound `C[C@]12CC[C@H]3[C@@H](CC[C@]4(O)C[C@@H](O)CC[C@]34C=O)[C@@]1(O)CC[C@@H]2C1=CC(=O)OC1`, the T/C reads like this: (endpoint: median survival time, dose: 12.5 mg/kg/injection, schedule: Q01DX011 (ip), vehicle: saline with Tween-80, higher = longer survival) 106 % of control; (endpoint: median survival time, dose: 50.0 mg/kg/injection, schedule: Q01DX011 (ip), vehicle: saline with Tween-80, higher = longer survival) 115 % of control.

`Cc1cc(/C=C/c2cc[n+](C)c3ccccc23)c(O)c2ncccc12`: the T/C reads like this: (endpoint: mean tumor weight, dose: 6.0 mg/kg/injection, schedule: Q01DX011 (ip), vehicle: saline, higher = larger tumour) 76 % of control; (endpoint: median survival time, dose: 6.0 mg/kg/injection, schedule: Q01DX011 (ip), vehicle: saline, higher = longer survival) 102 % of control.

As for `CCCCN(CC)C(=S)S[Te](SC(=S)N(CC)CCCC)(SC(=S)N(CC)CCCC)SC(=S)N(CC)CCCC`, the T/C (endpoint: mean tumor weight (est.), dose: 100.0 mg/kg/injection, schedule: Q01DX011 (ip), vehicle: saline with Tween-80, higher = larger tumour) is 72 % of control; the T/C (endpoint: mean tumor weight (est.), dose: 200.0 mg/kg/injection, schedule: Q01DX011 (ip), vehicle: saline with Tween-80, higher = larger tumour) was 54 % of control; the T/C (endpoint: mean tumor weight (est.), dose: 400.0 mg/kg/injection, schedule: Q01DX011 (ip), vehicle: saline with Tween-80, higher = larger tumour) was 29 % of control; the T/C (endpoint: median survival time, dose: 100.0 mg/kg/injection, schedule: Q01DX011 (ip), vehicle: saline with Tween-80, higher = longer survival) is 121 % of control; the T/C (endpoint: median survival time, dose: 200.0 mg/kg/injection, schedule: Q01DX011 (ip), vehicle: saline with Tween-80, higher = longer survival) was 114 % of control; the T/C (endpoint: median survival time, dose: 400.0 mg/kg/injection, schedule: Q01DX011 (ip), vehicle: saline with Tween-80, higher = longer survival) was 121 % of control.

`CC1=C2C(=C[C@@](C)(CO)[C@@H]2O)C(=O)[C@](C)(O)C12CC2`: the T/C is 89 % of control (endpoint: mean tumor weight, dose: 0.1 mg/kg/injection, schedule: Q01DX011 (ip), vehicle: other, higher = larger tumour); 65 % of control (endpoint: mean tumor weight, dose: 0.2 mg/kg/injection, schedule: Q01DX011 (ip), vehicle: other, higher = larger tumour); 58 % of control (endpoint: mean tumor weight, dose: 0.4 mg/kg/injection, schedule: Q01DX011 (ip), vehicle: other, higher = larger tumour).

As to `C[C@@H]1O[C@@H](O[C@H]2CC[C@]3(C=O)[C@H]4CC[C@]5(C)[C@@H](c6ccc(=O)oc6)CC[C@]5(O)[C@@H]4CC[C@]3(O)C2)[C@H](O)[C@H](O)[C@H]1O[C@@H]1O[C@H](CO)[C@@H](O)[C@H](O)[C@H]1O`, the T/C is, setting by setting: (endpoint: mean tumor weight (est.), dose: 0.63 mg/kg/injection, schedule: Q01DX011 (ip), vehicle: saline, higher = larger tumour) 80 % of control; (endpoint: mean tumor weight (est.), dose: 1.25 mg/kg/injection, schedule: Q01DX011 (ip), vehicle: saline, higher = larger tumour) 89 % of control; (endpoint: median survival time, dose: 0.63 mg/kg/injection, schedule: Q01DX011 (ip), vehicle: saline, higher = longer survival) 108 % of control; (endpoint: median survival time, dose: 1.25 mg/kg/injection, schedule: Q01DX011 (ip), vehicle: saline, higher = longer survival) 98 % of control.

On to `COC(=O)C[C@](O)(CCC(C)(C)O)C(=O)O[C@@H]1C(OC)=C[C@]23CCCN2CCc2cc4c(cc2[C@H]13)OCO4`, for which the T/C is 103 % of control (endpoint: mean tumor weight, dose: 0.25 mg/kg/injection, schedule: Q01DX011 (ip), vehicle: saline, higher = larger tumour); 104 % of control (endpoint: mean tumor weight, dose: 0.5 mg/kg/injection, schedule: Q01DX011 (ip), vehicle: saline, higher = larger tumour); 75 % of control (endpoint: mean tumor weight, dose: 0.5 mg/kg/injection, schedule: Q01DX011 (ip), vehicle: water, higher = larger tumour); 106 % of control (endpoint: mean tumor weight, dose: 1.0 mg/kg/injection, schedule: Q01DX011 (ip), vehicle: water, higher = larger tumour); 114 % of control (endpoint: median survival time, dose: 0.25 mg/kg/injection, schedule: Q01DX011 (ip), vehicle: saline, higher = longer survival); 114 % of control (endpoint: median survival time, dose: 0.5 mg/kg/injection, schedule: Q01DX011 (ip), vehicle: saline, higher = longer survival).

The record behind these values is PubChem BioAssay AID272 (DTP/NCI, 2004).
